Converted amounts (≈) assume the structure as drawn.
Key:
HepG2 [1] = assay: Anticancer activity against human HepG2 cells assessed as reduction in cell viability incubated for 48 hrs by MTT assay; type: functional, cell-based; details: HepG2, 48 h
HCT-116 = assay: Anticancer activity against human HCT-116 cells assessed as reduction in cell viability incubated for 24 hrs by MTT colorimetric assay; type: functional, cell-based; details: HCT-116, 24 h
HepG2 [2] = assay: Anticancer activity against human HepG2 cells assessed as reduction in cell viability incubated for 24 hrs by MTT colorimetric assay; type: functional, cell-based; details: HepG2, 24 h
MCF7 [3] = assay: Anticancer activity against human MCF7 cells assessed as reduction in cell viability incubated for 24 hrs by MTT colorimetric assay; type: functional, cell-based; details: MCF7, 24 h
Escherichia coli [4] = assay: Antibacterial activity against Escherichia coli ATCC 25922 assessed as diameter of inhibition zone at 50 mg/ml incubated for 24 hrs by paper disk diffusion method; type: functional; details: read-out: DIZ
Klebsiella pneumoniae [5] = assay: Antibacterial activity against Klebsiella pneumoniae MGH 78578 assessed as diameter of inhibition zone at 50 mg/ml incubated for 24 hrs by paper disk diffusion method; type: functional; details: read-out: DIZ
Aspergillus fumigatus = assay: microbe, parasite or virus in culture; type: functional; details: ATCC204305, dose 50 mg/ml, time 24 hrs, read-out: DIZ
Aspergillus ochraceus [6] = assay: Antifungal activity against Aspergillus ochraceus assessed as diameter of inhibition zone by disc diffusion method; type: functional
Penicillium chrysogenum [7] = assay: Antifungal activity against Penicillium chrysogenum assessed as diameter of inhibition zone by disc diffusion method; type: functional
Serratia marcescens [8] = assay: Antibacterial activity against Serratia marcescens assessed as diameter of inhibition zone by disc diffusion method; type: functional
[9] = Antioxidant activity assessed as DPPH radical scavenging activity; type: functional
[10] = Antioxidant activity assessed as H2O2 radical scavenging activity; type: functional
[11] = Antioxidant activity assessed as NO radical scavenging activity; type: functional
Staphylococcus aureus [12] = assay: Antibacterial activity against Staphylococcus aureus assessed as diameter of inhibition zone; type: functional
Bacillus subtilis [13] = assay: Antibacterial activity against Bacillus subtilis assessed as diameter of inhibition zone; type: functional
Escherichia coli [14] = assay: Antibacterial activity against Escherichia coli assessed as diameter of inhibition zone; type: functional
Salmonella typhimurium [15] = assay: Antibacterial activity against Salmonella typhimurium assessed as diameter of inhibition zone; type: functional, Salmonella enterica subsp. enterica serovar Typhimurium
Salmonella typhimurium [16] = assay: Antibacterial activity against Salmonella typhimurium MTCC 98 assessed as bacterial growth inhibition by broth microdilution method; type: functional, Salmonella enterica subsp. enterica serovar Typhimurium; details: Salmonella enterica
Staphylococcus aureus [17] = assay: Antibacterial activity against Staphylococcus aureus NCTC-7447 assessed as diameter of inhibition zone incubated for 24 hrs by disc diffusion method; type: functional
Bacillus cereus = assay: Antibacterial activity against Bacillus cereus ATCC-14579 assessed as diameter of inhibition zone incubated for 24 hrs by disc diffusion method; type: functional
Serratia marcescens [18] = assay: Antibacterial activity against Serratia marcescens IMRU-70 assessed as diameter of inhibition zone incubated for 24 hrs by disc diffusion method; type: functional
Proteus mirabilis = assay: Antibacterial activity against Proteus mirabilis NTCC-289 assessed as diameter of inhibition zone incubated for 24 hrs by disc diffusion method; type: functional
Aspergillus ochraceus [19] = assay: Antifungal activity against Aspergillus ochraceus AUCC-230 assessed as diameter of inhibition zone incubated for 24 hrs by disc diffusion method; type: functional
Penicillium chrysogenum [20] = assay: Antifungal activity against Penicillium chrysogenum AUCC-530 assessed as diameter of inhibition zone incubated for 24 hrs by disc diffusion method; type: functional
MCF7 [21] = assay: cells; details: Homo sapiens, MCF7, 48 h
HepG2 [22] = assay: Antiproliferative activity against human HepG2 cells assessed as reduction in cell proliferation; type: functional, cell-based
MCF7 [23] = assay: Antiproliferative activity against human MCF7 cells assessed as reduction in cell proliferation; type: functional, cell-based
[24] = Antiproliferative activity against human […] cells assessed as reduction in cell proliferation; type: functional, cell-based
Alpha-glucosidase = Alpha-glucosidase (Saccharomyces cerevisiae S288c, UniProt P53341+P38158+P07265); assay: Inhibition of Saccharomyces cerevisiae alpha-glucosidase assessed as decrease in release of p-nitrophenol using pNPG as substrate incubated for 10 mins by spectroscopic analysis; type: protein assay
Bacillus subtilis [25] = assay: Antibacterial activity against Bacillus subtilis assessed as diameter of inhibition zone at 100 ug/ml by disc diffusion method; type: functional; details: read-out: DIZ
Klebsiella pneumoniae [26] = assay: Antibacterial activity against Klebsiella pneumoniae assessed as diameter of inhibition zone at 100 ug/ml by disc diffusion method; type: functional; details: read-out: DIZ
Escherichia coli [27] = assay: Antibacterial activity against Escherichia coli assessed as diameter of inhibition zone at 100 ug/ml by disc diffusion method; type: functional; details: read-out: DIZ

## COc1ccc(C2CC(=O)Oc3[nH]c(=O)[nH]c(=O)c32)cc1O (stereo unspecified)
HepG2 [1]
  IC50: 8.8 µM

## N#CC(C#N)=C1c2c(-c3ccccc3)n[nH]c2Oc2[nH]c(=O)nc(-c3ccccc3O)c21
HCT-116
  IC50: 30.1 µM
HepG2 [2]
  IC50: 30.1 µM
MCF7 [3]
  IC50: 30.1 µM

## N#CC(C#N)=C1c2c(-c3ccccc3)n[nH]c2Oc2[nH]c(=S)nc(-c3ccccc3O)c21
HCT-116
  IC50: 22.6 µM
HepG2 [2]
  IC50: 22.6 µM
MCF7 [3]
  IC50: 22.6 µM

## Nc1ncnc2c1C(c1ccc(Cl)cc1)C=C(c1cc3ccccc3oc1=O)O2 (stereo unspecified)
Escherichia coli [4]
  zone of inhibition at 50000 µg/mL: 10 mm
Klebsiella pneumoniae [5]
  zone of inhibition at 50000 µg/mL: 14 mm
Aspergillus fumigatus
  zone of inhibition at 50000 µg/mL: 10 mm

## Cc1nc2c3c(ncn2n1)Oc1ccc2cc(Br)ccc2c1C3
Aspergillus ochraceus [6]
  diameter of the inhibition zone (DIZ): 17 mm
Penicillium chrysogenum [7]
  diameter of the inhibition zone (DIZ): 13 mm
Serratia marcescens [8]
  diameter of the inhibition zone (DIZ): 23 mm

## Cc1cc(C(C)(C)C)c(O)c(C(C)(C)C)c1 [BUTYLATED HYDROXYTOLUENE]
[9]
  IC50: 37.52 µg/mL (≈ 170 µM)
[10]
  IC50: 65.33 µg/mL (≈ 296 µM)
[11]
  IC50: 56.9 µg/mL (≈ 258 µM)

## Nc1ncnc2c1C(c1ccc(Cl)cc1)c1ccc(O)cc1O2 (stereo unspecified)
[9]
  IC50: 36.82 µg/mL (≈ 113 µM)
[10]
  IC50: 53.54 µg/mL (≈ 164 µM)
[11]
  IC50: 50.32 µg/mL (≈ 154 µM)

## O=C1CC(c2ccc(O)cc2)c2c([nH]c(=O)[nH]c2=O)O1 (stereo unspecified)
HepG2 [1]
  IC50: 8.2 µM

## CCn1cc(C(=O)O)c(=O)c2cc(F)c(N3CCNCC3)cc21 [NORFLOXACIN]
Staphylococcus aureus [12]
  diameter of the inhibition zone (DIZ): 14 mm
Bacillus subtilis [13]
  diameter of the inhibition zone (DIZ): 24 mm
Escherichia coli [14]
  diameter of the inhibition zone (DIZ): 20 mm
Salmonella typhimurium [15]
  diameter of the inhibition zone (DIZ): 16 mm
Salmonella typhimurium [16]
  MIC: 10 µg/mL (≈ 31.3 µM)

## N#CCc1nc2c3c(ncn2n1)Oc1c(c(=O)oc2ccccc12)C3c1ccc(Cl)cc1 (stereo unspecified)
Staphylococcus aureus [17]
  diameter of the inhibition zone (DIZ): 18 mm
Bacillus cereus
  diameter of the inhibition zone (DIZ): 19 mm
Serratia marcescens [18]
  diameter of the inhibition zone (DIZ): 21 mm
Proteus mirabilis
  diameter of the inhibition zone (DIZ): 21 mm
Aspergillus ochraceus [19]
  diameter of the inhibition zone (DIZ): 15 mm
Penicillium chrysogenum [20]
  diameter of the inhibition zone (DIZ): 13 mm

## COc1cc(C2CC(=O)Oc3[nH]c(=O)[nH]c(=O)c32)ccc1O (stereo unspecified)
HepG2 [1]
  IC50: 10.6 µM
MCF7 [21]
  IC50: 8.9 µM

## c1ccc(-c2nn(-c3ccccc3)cc2C2c3c(ccc4ccccc34)Oc3ncn4ncnc4c32)cc1 (stereo unspecified)
HepG2 [22]
  IC50: 9.04 µM
MCF7 [23]
  IC50: 10 µM
[24]
  IC50: 4.9 µM

## COc1cc(/C=C/C(=O)CC(=O)/C=C/c2ccc(O)c(OC)c2)ccc1O [CURCUMIN]
Alpha-glucosidase
  IC50: 44.8 µM

## Nc1ncnc2c1C(c1ccc3c(c1)OCO3)c1ccc(O)cc1O2 (stereo unspecified)
[9]
  IC50: 39.46 µg/mL (≈ 118 µM)
[10]
  IC50: 53.54 µg/mL (≈ 160 µM)

## COc1cc(/C=C/C(=O)C2=C(/C=C/c3ccc(O)c(OC)c3)Oc3[nH]c(=O)[nH]c(=O)c3C2c2c[nH]c3ccccc23)ccc1O (stereo unspecified)
Alpha-glucosidase
  IC50: 35.3 µM

## CCOC(=O)C1=C(C)Oc2nc(C)n(Cc3cn(-c4cccc(C(F)(F)F)c4)nn3)c(=O)c2C1c1ccc([N+](=O)[O-])cc1 (stereo unspecified)
Bacillus subtilis [25]
  zone of inhibition at 100 µg/mL: 12 mm
Klebsiella pneumoniae [26]
  zone of inhibition at 100 µg/mL: 15.5 mm
Escherichia coli [27]
  zone of inhibition at 100 µg/mL: 14 mm

## Nc1ncnc2c1C(c1ccc([N+](=O)[O-])cc1)c1ccc(O)cc1O2 (stereo unspecified)
[9]
  IC50: 34.34 µg/mL (≈ 102 µM)
[10]
  IC50: 53.54 µg/mL (≈ 159 µM)
[11]
  IC50: 50.32 µg/mL (≈ 150 µM)

— ChEMBL document CHEMBL5241112, “Insights into the recent progress in the medicinal chemistry of pyranopyrimidine analogs” (RSC Med Chem, 2022)
